Measurements from US5504240A, “Borane-hydroxydialkylsulfide borates” (Aldrich Chemical Company, Inc., priority 1995, dated 1996).
Values after ≈ are worked out from the molar mass of the structure shown.

Test: not given
Conditions: prior art; cited from earlier work

Row | SMILES | stability
1 | [BH3-][S+]1CCOCC1 [Borane-1,4-thioxane] | stable over prolonged periods
2 | [BH3-][S+](C)C [Borane-methyl sulfide] | much more stable than borane-tetrahydrofuran
3 | [BH3-][O+]1CCCC1 [Borane-tetrahydrofuran] | unstable over a period of time

Test: solubility in water of hydroxysulfides (1 g per ... mL H2O)
Assay type: physicochemical
Conditions: mL H2O per 1 g hydroxysulfide

Row | SMILES | solubility in water 1 g per ... mL H2O [mL]
4 | CC(C)CCSCCOCCOCCO [i-AmSCH2 CH2 OCH2 CH2 OCH2 CH2 OH, 2-2-2-(isoamylthio)ethoxy!ethoxy!ethanol] | 100
5 | CC(C)CCSCCOCCO [i-AmSCH2 CH2 OCH2 CH2 OH, 2-2-(isoamylthio)ethoxy!ethanol] | < 100
6 | CC(C)CCSCCO [i-AmSCH2 CH2 OH, 2-(isoamylthio)ethanol] | < 100

Same assay, conditions: water

Row | SMILES | solubility in water 1 g per ... mL H2O (in words)
7 | CCSCCOCCOCCO [Et--SCH2 CH2 OCH2 CH2 OCH2 CH2 OH, 2-2-2-(ethylthio)ethoxy!ethoxy!ethanol] | miscible
8 | CCSCCOCCO [EtSCH2 CH2 OCH2 CH2 OH, 2-2-(ethylthio)ethoxy!ethanol] | miscible
9 | COCCSCCO [H3 COCH2 CH2 SCH2 CH2 OH, 2-(2-methoxyethylthio)ethanol] | miscible
10 | CC(C)(C)SCCOCCOCCO [t-BuSCH2 CH2 OCH2 CH2 OCH2 CH2 OH, 2-2-2-(tert-butylthio)ethoxy!ethoxy!ethanol] | miscible

Same assay, conditions: water; mL H2O per 1 g hydroxysulfide

Row | SMILES | solubility [mg/mL]
11 | CC(C)(C)SCCOCCO [t-BuSCH2 CH2 OCH2 CH2 OH, 2-2-(tert-butylthio)ethoxy!ethanol] | 66.7 (≈ 374 mM)
12 | CC(C)(C)SCCO [t-BuSCH2 CH2 OH, 2-(tert-butylthio)ethanol] | 20 (≈ 149 mM)

Test: not given
Conditions: prior art; cited from earlier work
Remark: another data set of the same source

Row | SMILES | solubility in water
13 | [BH3-][S+]1CCOCC1 [Borane-1,4-thioxane] | limited solubility in water
14 | CSC [dimethyl sulfide] | not soluble in water

Test: not given
Conditions: in BH3; liquid; prior art; cited from earlier work

Row | SMILES | borane concentration [M]
15 | [BH3-][S+]1CCOCC1 [Borane-1,4-thioxane] | 8

Test: active hydride analysis of borane adducts ([BH3], by hydrolysis and hydrogen evolved)
Assay type: physicochemical
Conditions: estimated by hydrolysis in water:glycerol:THF 1:1:1 and measuring hydrogen evolved
Procedure: Alternatively, borate esters were prepared from the reaction of borane-tetrahydrofuran with hydroxysulfide in molar ratio 1:3. Quantitative borate ester formation was confirmed by measuring the hydrogen evolved. Warming of the reaction mixture (60°-65° C.) is necessary to drive the reaction to completion. Generally speaking, the novel compounds of this invention are conveniently prepared in a straight-forward procedure by passing diborane into a neat borate ester at 0° C. in a bubbler provided with a stirrer. Excess diborane not absorbed by the borate ester is absorbed in a down-stream bubbler containing tetrahydrofuran over mercury and cooled in ice water. A mercury bubbler is connected to the exit. Diborane is passed into the ester until the concentration of excess borane in THF reaches approximately 1M. The borane-borate adduct is stirred overnight at room temperature prior to disconnecting the bubblers and analyzed for active hydride following the procedure described by Brown, H. C., Organic Syntheses via Boranes, J. Wiley: New York, 1975, p. 191, using a 2M hydrochloric acid-glycerol-water(2:1:1) hydrolysis solution.
A 100 ml one-neck, round-bottom flask equipped with a septum inlet, magnetic stirring bar and an adapter with a stopcock was charged with boron trifluoride diglyme (20 mmol). A 2M solution of sodium borohydride in triglyme (7.5 ml, 15 mmol) was added dropwise by means of a hypodermic syringe. Generation of diborane is smooth and the reaction is not exothermic. Generated diborane was passed through a bubbler containing sodium borohydride (0.1 g) in diglyme (5 ml) and a trap cooled to -78° C. was absorbed in neat 2-(tert-butylthio)ethanol (7.94 g, 60 mmol) at room temperature. After the addition was completed, the solution of borate was stirred at 50° C. for 15 min under a slow stream of nitrogen to produce the borate ester tris 2-(tert-butylthio)ethyl borate at room temperature. Escaped diborane was absorbed in the following bubbler containing tetrahydrofuran (10 ml) over mercury and cooled in ice water. A mercury bubbler was connected to the exit. Diborane was passed into the solution until the concentration of borane in the THF reached approximately 1M. The borane adduct, a colorless liquid, was analyzed for active hydride by a standard procedure using a water:glycerol:THF 1:1:1 hydrolyzing mixture. Concentration 6.4M, ^11 B NMR δ -26.03.
^b Estimated by hydrolysis in water: glycerol: THF 1:1:1 and measurin

Row | SMILES | [BH3] [M]
16 | [BH3-][S+](CCOB(OCC[S+]([BH3-])C(C)(C)C)OCC[S+]([BH3-])C(C)(C)C)C(C)(C)C (stereo not drawn) [9a, Tris 2-(tert-Butylthio)ethyl!borate borane adduct (1:3)] | 6.4
17 | [BH3-][S+](CCOB(OCC[S+]([BH3-])CCC(C)C)OCC[S+]([BH3-])CCC(C)C)CCC(C)C (stereo not drawn) [9b] | 5.9
18 | [BH3-][S+](CC)CCOCCOB(OCCOCC[S+]([BH3-])CC)OCCOCC[S+]([BH3-])CC (stereo not drawn) [9c, tris 2-2-(Ethylthio)ethoxy!ethyl!borate borane adduct (1:3)] | 5.7
19 | [BH3-][S+](CCOCCOB(OCCOCC[S+]([BH3-])C(C)(C)C)OCCOCC[S+]([BH3-])C(C)(C)C)C(C)(C)C (stereo not drawn) [9d, tris 2-2-(tert-Butylthio)ethoxy!ethyl!borate borane adduct (1:3)] | 5.5
20 | [BH3-][S+](CCOCCOB(OCCOCC[S+]([BH3-])CCC(C)C)OCCOCC[S+]([BH3-])CCC(C)C)CCC(C)C (stereo not drawn) [9e, tris 2-2-(Isoamylthio)ethoxy!ethyl borate borane adduct (1:3)] | 5.0
21 | [BH3-][S+](CC)CCOCCOCCOB(OCCOCCOCC[S+]([BH3-])CC)OCCOCCOCC[S+]([BH3-])CC (stereo not drawn) [9f, tris 2-2-2-(Ethylthio)ethoxy!ethoxy!ethyl!borate borane adduct (1:3)] | 5.2
22 | [BH3-][S+](CCOCCOCCOB(OCCOCCOCC[S+]([BH3-])C(C)(C)C)OCCOCCOCC[S+]([BH3-])C(C)(C)C)C(C)(C)C (stereo not drawn) [9g, tris 2-2-2-(tert-Butylthio)ethoxy!ethoxy!ethyl!borate borane adduct (1:3)] | 4.2
23 | [BH3-][S+](CCOCCOCCOB(OCCOCCOCC[S+]([BH3-])CCC(C)C)OCCOCCOCC[S+]([BH3-])CCC(C)C)CCC(C)C (stereo not drawn) [9h, tris 2-2-2-(Isoamylthio)ethoxy!ethoxy!ethyl!borate borane adduct (1:3)] | 4.0
24 | [BH3-][S+](CCOC)CCOB(OCC[S+]([BH3-])CCOC)OCC[S+]([BH3-])CCOC (stereo not drawn) [9i, tris 2-(2-Methoxyethylthio)ethyl!borate borane adduct (1:3)] | 6.0
